Tests used:
[1] = tested on: iNOS
Experimental: Primary mouse microglia were treated with different concentrations of NaPB for 6 h followed by stimulation with LPS under serum-free condition. After 24 h of stimulation, concentrations of nitrite were measured in supernatants (A) and the level of iNOS protein was monitored in cells by Western blot (B). […] After 5 h of stimulation, the expression of iNOS mRNA was monitored by semi-quantitative RT-PCR (C). Cells preinctibated with different concentration of trichostatin A (TSA) and sodium butyrate (NaBu) for 6 h were stimulated with LPS for 24 h under serum-free condition followed by monitoring the level of nitrite in supernatants (p). […] Primary human astroglia isolated from fetal brain tissues were treated with different concentrations of NaPB for 6 h followed by stimulation with IL-1β under serum-free condition. After 48 h of stimulation, concentrations of nitrite (E) were measured in supernatants. Human astroglia plated at 70-80% confluence in 12-well plates were co-transfected with 0.25 μg of phiNOS(7.2)Luc and 12.5 ng of pRL-TK using the Lipofectamine-Plus (Invitrogen). Twenty-four h after transfection, cells received NaPB. After 6 h of incubation, cells were stimulated with IL-1β (20 ng/ml) for 12 h. Firefly (ff-Luc) and Renilla (r-Luc) luciferase activities were obtained by analyzing the total cell extract (F). […]

[2] = tested on: human iNOS promoter; settings: phiNOS(7.2)Luc; 6 h preincubation, IL-1β 20 ng/ml 12 h
Experimental: (§1) Primary mouse microglia were treated with different concentrations of NaPB for 6 h followed by stimulation with LPS under serum-free condition. After 24 h of stimulation, concentrations of nitrite were measured in supernatants (A) and the level of iNOS protein was monitored in cells by Western blot (B). […] After 5 h of stimulation, the expression of iNOS mRNA was monitored by semi-quantitative RT-PCR (C). Cells preinctibated with different concentration of trichostatin A (TSA) and sodium butyrate (NaBu) for 6 h were stimulated with LPS for 24 h under serum-free condition followed by monitoring the level of nitrite in supernatants (p). […] Primary human astroglia isolated from fetal brain tissues were treated with different concentrations of NaPB for 6 h followed by stimulation with IL-1β under serum-free condition. After 48 h of stimulation, concentrations of nitrite (E) were measured in supernatants. Human astroglia plated at 70-80% confluence in 12-well plates were co-transfected with 0.25 μg of phiNOS(7.2)Luc and 12.5 ng of pRL-TK using the Lipofectamine-Plus (Invitrogen). Twenty-four h after transfection, cells received NaPB. After 6 h of incubation, cells were stimulated with IL-1β (20 ng/ml) for 12 h. Firefly (ff-Luc) and Renilla (r-Luc) luciferase activities were obtained by analyzing the total cell extract (F).

[3] = tested on: primary human astroglia; settings: 6 h preincubation, IL-1β 48 h
Experimental: as §1

[4] = tested on: NF-κB; assay: DNA-binding activity of NF-κB by EMSA in BV-2 microglial cells; format: cell-based, mouse; settings: NaPB different concentrations, 6 h preincubation, LPS 1 h
Experimental: Results represent three independent experiments.
(§5) Activation of NF-κB was monitored by IκBαphosphorylation, DNA binding activity by EMSA and transcriptional activity by reporter assays.
Electrophoretic Mobility Shift Assay (EMSA): Nuclear extracts were prepared and EMSA was carried out. […] Six-micrograms of nuclear extract was incubated with binding buffer and with IR-labeled probe for 20 min. Subsequently, samples were separated on a 6% polyacrylamide gel in 0.25× TBE buffer (Tris borate-EDTA) and analyzed by Odyssey Infrared Imaging System (LI-COR Biosciences).

[5] = tested on: NF-κB; assay: Transcriptional activity of NF-κB (PBIIX-Luc reporter) in BV-2 microglial cells; format: cell-based, mouse
Experimental: Transcriptional activity of NF-κB: Transcriptional activity of NF-κB was assayed. […] After 24 h of transfection, […], and firefly and Renilla luciferase activities were recorded in a TD-20/20 Luminometer (Turner Designs, Sunnyvale, Calif.) by analyzing total cell extract according to standard instructions provided in the Dual Luciferase Kit (Promega), Relative luciferase activity of cell extracts was typically represented as (firefly luciferase value/Renilta luciferase value)×10^−3.

[6] = tested on: cholesterol; assay: Serum cholesterol in male C57/BL6 mice; format: in vivo, mouse; settings: 200 mg/kg body wt/d, oral, 7 d
Experimental: Mice (6-8 wk old) were treated with NaPB (200 mg/kg body wt/d) and pravastatin (1 mg/kg body wt/d) separately via gavage for 7 d followed by quantification of cholesterol in serum using a simple fluorometric method.
Intermediates of the mevalonate pathway play a role in the expression of iNOS and proinflammatory cytokines in glial cells. End product of the mevalonate pathway is cholesterol and therefore, we investigated if NaPB had any effect on the level of cholesterol in vivo in mice.
Assay of cholesterol in serum: Total cholesterol was quantified irr serum by using an Amplex Red Cholesterol Assay kit from Invitrogen. Briefly, cholesterol was oxidized by cholesterol oxidase to yield H2O2, which then reacted with 10-acetyl-3,7 dihydroxyphenoxazine (Amplex Red). In the presence of horseradish peroxidase (HRP), this Amplex Red:H2O2 complex produced highly fluorescent resorufin, which was detected by fluorometry.

[7] = tested on: IL-1β; settings: different concentrations, 6 h preincubation, 1 μM MPP+ 5 h
Experimental: (§2) Mouse BV-2 microglial cells were treated with different concentrations of NaPB for 6 h followed by stimulation with 1 μM. MPP under serum-free condition. After 5 h of stimulation, the mRNA expression of iNOS, IL-1β and TNF-α was monitored by semi-quantitative RT-PCR (A) and quantitative real-time PCR (C, iNOS; D, IL-1β; E, TNF-α). After 24 h of stimulation, the protein expression of iNOS was monitored by Western blot (B).
(§3) Glial inflammation is a critical component of PD pathogenesis which is mirrored in MPTP mouse models. The neurotoxic effect of MPTP depends on its conversion into MPP+. In glial cells, MAO-B converts MPTP to MPP+, which then leads to glial activation. MPP+ is able to stimulate the microglial expression of inflammatory molecules including NO, TNF-α, IL-1β, and IL-6. Although, a well characterized receptor for MPP+ was not known in microglial cells until recent past, low dose of MPP+ stimulates microglial activation via the engagement of cysteinyl leukotriene receptor (CysLT1R), MPP+ dependent activation of CysLT1R and its subsequent translocation from plasma membrane to cytosol plays a critical role in the process of microglial activation. Therefore, we investigated MPP+ could induce the expression of proinflammatory molecules microglia and if NaPB suppressed such induction.
(§4) Real-time PCR analysis: It was performed in the ABI-Prism7700 sequence detection system (Applied Biosystems, Foster City, Calif.) using TaqMan Universal Master mix and optimized concentrations of FAM-labeled probes and primers.

[8] = tested on: TNF-α; settings: different concentrations, 6 h preincubation, 1 μM MPP+ 5 h
Experimental: as §2, §3, §4

[9] = tested on: iNOS; remark: listed apart in the source
Experimental: as §2, §3, §4

[10] = tested on: phospho-IκBα; settings: 0.5 mM, 6 h preincubation, LPS 1 μg/ml
Experimental: (A) BV-2 microglial cells preincubated with 0.5 mM NaPB for 6 h were stimulated with 1 μg/ml LPS. At different minute of stimulation, the level of phospho-1κBα was monitored by Western blot.
as §5

[11] = tested on: NF-κB p65; settings: 200 mg/kg body wt/day gavage from 3 h after last MPTP; 24 h after last MPTP
Text: Twenty-four h after the last injection of MPTP, ventral midbrain sections were immunostained for p65 (low magnification). Midbrain sections of MPTP-intoxicated mice were also double-labeled for p65 and glial cell markers (GFAP for astrocytes and CD11b for microglia). Results represent three independent experiments. D) NF-κB p65 positive cells counted in four nigral sections (two images per slide) from each of four mice in an Olympus IX81 fluorescence microscope using the MicroSuite™ imaging software are mentioned as cells/mm2. ^ap<0.0001 vs saline-control; ^bp<0.0001 vs MPTP.
Next, mice were treated with NaPB (200 mg/kg body wt/day) via gavage from 3 h after the last injection of MPTP and the activation of NF-κB was examined 24 h after the last injection of MPTP.
For acute MPTP intoxication, mice received four intraperitoneal (i.p.) injections of MPTP-HCl (18 mg/kg of free base; Sigma Chemical Co., St. Louis, Mo.) in saline at 2 hr intervals. Control animals received only saline.
For immunofluorescence staining on fresh frozen sections, rat anti-mouse CD11b (1:100), goat anti-mouse GFAP (1:100), rabbit anti NF-κB p65 (1:100), goat anti-NF-κB p65 (1:100), rabbit anti NF-κB p50 (1:100), and rabbit anti-mouse iNOS (1:250) were used. The samples were mounted and observed under a Bio-Rad MRC1024ES confocal laser scanning microscope.

[12] = tested on: dopaminergic neurons of MPTP-intoxicated mice; settings: 200 mg/kg body wt/day from 3 h after last MPTP, 7 d
Experimental: Mice receiving NaPB (200 mg/kg body wt/day) from 3 h after the last injection of MPTP were sacrificed 7d after the last injection of MPTP followed by TH immunostaining of SNpc (A) and striatum (B), counting of TH-positive neurons in SNpc (C), quantification of TH-positive fibers in striatum (D), assay of neurotransmitters in striatum (E), and quantification of GSH in nigra (F). Data are means+SEM of eight mice per group. ^ap<0.0001 vs saline group; ^bp<0.0001 vs the MPTP group.
For acute MPTP intoxication, mice received four intraperitoneal (i.p.) injections of MPTP-HCl (18 mg/kg of free base; Sigma Chemical Co., St. Louis, Mo.) in saline at 2 hr intervals. Control animals received only saline. For chronic MPTP intoxication, mice received 10 injections of MPTP (s.c.; 25 mg/kg body weight) together with 10 injections of probenecid (i.p.; 250 mg/kg body weight) at an interval of 3.5 d.
Therefore, for short-term treatment, mice with acute MPTP 3 h after the last injection of MPTP. […]
Immunohistochemistry and quantitative morphology: Seven days after MPTP intoxication, mice were sacrificed and their brains fixed, embedded, and processed for tyrosine hydroxylase (TH) staining. […] Quantitation of striatal TH immunostaining was performed. […]

[13] = tested on: chronic MPTP mouse model of PD; settings: oral 100 mg/kg body wt/d from the third injection of MPTP/probenecid
Experimental: A) Six to eight week old male C57BL/6 mice received 10 injections of MPTP (s.c.; 25 mg/kg body weight) together with 10 injections of probenecid (i.p.; 250 mg/kg body weight) for 5 weeks. Control group of mice received only saline. One group of mice were treated with NaPB (100 mg/kg body weight/d) via gavage from the 3rd injection of MPTP/probenecid and continued for 1 week thereafter. Mice were tested for different motor tasks [horizontal activity (C), number of movements (D), rearing (E), and stereotypy (F)] one week after the last injection of MPTP followed by measuring the level of DA in striatum (B). Data are means+SEM of eight mice per group. ^ap<0.001 vs saline; ^bp<0.001 vs MPTP; p<0.05 vs saline; ^dp<0.05 vs MPTP.
We examined if NaPB was capable of protecting neurons in a chronic model (FIG. 10A). […] We initiated oral NaPB treatment (100 mg/kg body wt/d) from the third injection of MPTP/probenecid (FIG. 10A). […]
HPLC analysis of striatal dopamine and its metabolite levels: Striatal level of dopamine, DOPAC (3,4-dihydroxyphenylacetic acid) and HVA (homovanillic acid) was quantified. […] After pH adjustment and filtration, lOul of supernatant was injected onto an Eicompak SC-3ODS column (Complete Stand-Alone HPLC-ECD System EiCOMITTEC-500 from JM Science Inc., Grand Island, N.Y.) and analyzed following manufacturer's protocol.

[14] = RasV12-transfected cells, NaPB 6 h

sodium phenylbutyrate [NaPB]
LPS-induced mRNA expression of iNOS ([1]; RT-PCR, 5 h LPS): dose-dependently inhibited
LPS-induced protein expression of iNOS ([1]; Western blot, 24 h LPS): dose-dependently inhibited
IL-1β-induced activation of iNOS promoter [2]: markedly inhibited
IL-1β-induced production of NO [3]: markedly inhibited
LPS-induced DNA-binding activity of NF-κB [4]: inhibited
RasV12-induced activation of NF-κB [5, 14]: attenuated
LPS-induced transcriptional activity of NF-κB ([5]; different concentrations, 6 h preincubation): suppressed
reduction of the level of cholesterol in serum [6]: about 30%
MPP+-induced expression of IL-1β mRNA [7]: inhibited
MPP+-induced expression of TNF-α mRNA [8]: inhibited
MPP+-induced iNOS mRNA expression ([9]; 6 h preincubation, 1 μM MPP+ 5 h): suppressed
MPP+-induced iNOS protein expression ([9]; 6 h preincubation, 1 μM MPP+ 24 h, Western blot): suppressed
RasV12-induced expression of iNOS mRNA [9, 14]: attenuated
LPS-induced phosphorylation of IκBα [10]: inhibited
level of p65 in the SNpc [11]: markedly inhibited
reduction in striatal TH ODs ([12]; vs MPTP alone (70% reduction)): less reduction
reduction in SNpc TH-positive neurons ([12]; vs MPTP alone (approximately 75% loss)): less reduction
striatal DA [13]: significantly protected
